Measured values: PMC9658513, “Discovery of Compounds That Selectively Repress the Amyloidogenic Processing of the Amyloid Precursor Protein: Design, Synthesis and Pharmacological Evaluation of Diphenylpyrazoles” (International Journal of Molecular Sciences, 2022)

Tests used:
[1] = system: LC3; assay: Autophagic flux: LC3-I lipidation into LC3-II by Western blot; type: cell-based; conditions: Homo sapiens, 24 h, compound at 3 µM, SY5Y-APP^wt cells, vs control
Description: Previous work dedicated to compounds of family C [22] has underlined the effect of our compounds on autophagic flux and the lysosomal degradation pathways. More precisely, the role of the amino side chains and their number was highlighted. Therefore, we assessed whether the activity of compounds involved the modulation of lysosomal activities toward the accumulation of APP-CTFs and AICD. Thus, we studied the effect of a selection of compounds on the autophagic flux, more particularly, we evaluated the effect of compounds 24, 33, 34, 57, 65, 67, 70, and 71 on two markers associated with autophagy: p62 and LC3-I lipidation into LC3-II. To the previous selection of efficient compounds decreasing Aβ1–x production and increasing CTFα and AICD, we added compound 65 with no cytotoxicity at 100 µM. As a comparison, we also selected compound 57 with a hydroxymethyl substituent as a control. In addition to CQ, bafilomycin A, a well-known inhibitor of autophagic flux, was used as a control. Treatment with compounds 67 and 71 induced an increase in p62 expression by 2.5 and 4-fold, respectively, compared to the control condition (Figure 3). […] An increase in the two markers was also observed with compound 57, but to a smaller extent (1.7-fold for p62 and 2-fold for LC3-I/LC3-II).
(§1) The human neuroblastoma cell line SY5Y-APP^695WT was maintained in Dulbecco’s modified Eagle medium (DMEM, high glucose, pyruvate—GIBCO, Life Technologies, Carlsbad, CA, USA) supplemented with 10% fetal bovine serum, 2 mM L-glutamine, 1 mM non-essential amino acids and penicillin/streptomycin (GIBCO, Life Technologies, Carlsbad, CA, USA) at 37 °C in a 5% CO2 humidified incubator [36]. For compound treatment, a 10 mM stock solution was diluted in freshly supplemented DMEM medium to obtain the precise final concentration of the drug. Cells were plated at a density of 5 × 10^5 cells per well into 12-well plates and cultured with 1 mL supplemented DMEM cell medium for 24 h before compound exposure. The following day, the cell medium was replaced with fresh medium containing the compounds diluted at the indicated concentrations. Cells were treated for 24 h. At the end of the treatments, the cell medium was collected and kept at −80 °C until use, cells were rinsed once with PBS and extracted in 100 µL of Laemmli buffer (10 mM Tris, 20% glycerol, and 2% sodium dodecyl sulfate) using a cell-scraper. The cell lysate was further sonicated (30 pulses of 0.5 s, 60 Hz) for 5 min. Total protein concentration was determined using the Pierce BCA Protein Assay Kit (Thermo Scientific, Waltham, MA, USA) according to the manufacturer’s instructions. Samples were stored at −80 °C until analysis.
Cell protein lysates were prepared for Western blot analysis by diluting the sample with 1 volume of NuPAGE® lithium dodecyl sulfate (LDS) 2X sample buffer supplemented with 20% NuPAGE® sample reducing agents (Invitrogen). Samples were heated for 10 min at 100 °C. Ten µg of total proteins per well were loaded onto precast 4–12% Criterion XT Bis-Tris polyacrylamide gels (Bio-Rad) and electrophoresis was achieved after applying a tension of 150 V for 90 min using a Criterion electrophoresis cell with the NuPAGE® MOPS SDS running buffer (1X). Proteins were transferred to a nitrocellulose membrane of […] pore size (G&E Healthcare, Madison, WI, USA) using the Criterion blotting system and applying a tension of 100 V for 45 min. To resolve proteins of low molecular weights such as carboxy-terminal fragments of APP, 12% Criterion XT Bis-Tris polyacrylamide gels (Bio-Rad, Hercules, CA, USA) were used, and electrophoresis was performed for 70 min at 150 V in a NuPAGE® MES SDS running buffer (1X). Proteins were transferred to a nitrocellulose membrane of 0.2 µm pore size (G&E Healthcare, Madison, WI, USA) at 100 V for 40 min. Molecular weight calibration was achieved using molecular weight markers (Novex and Magic Marks, Life Technologies, Carlsbad, CA, USA). […]

[2] = system: p62/LC3; assay: Ratio between p62 and LC3 expression levels; type: cell-based, human; conditions: compound at 3 µM, 24 h, SY5Y-APP^wt cells
Description: Compounds from both series were selected to first determine the potential relationship between the repression of Aβ1–x production and the increased expression of LC3 and p62. […] We then also considered the ratio between the p62 and LC3 expression levels.
Figure 3 Effect of compounds 24, 33, 34, 57, 65, 67, 70, and 71 on the autophagic flux in SY5Y-APP^wt cells. […] Cell lysates were immunolabeled with the following antibodies: p62 (a), LC3 (b), and β-actin. Statistical significance was set at * p < 0.05, ** p < […], *[…], **** p < 0.0001, and ns as not significant.

[3] = system: sAPPβ secretion; assay: sAPPβ secretion (MSD sAPPα/sAPPβ Multiplex Kit); type: cell-based, human; conditions: SY5Y cells, mean ± SD of at least three experiments in triplicate
Experimental: (§2) A selection of compounds with several selected activities was performed including sAPPα and sAPPβ, which were further explored. […] The decrease in Aβ could result from a decrease in either β- or γ-secretase cleavage or an increase in the α-secretase cleavage of APP. Thus, medium concentrations of sAPPβ and sAPPα, which are the β- and α-secretase extramembrane shed APP fragments, were determined after cell drug treatments.
as §1
Conditioned media of SY5Y-APP^695WT collected at the end of treatments were centrifuged at 1000× g for 5 min to eliminate cell debris.
(§3) Aβ1–40/Aβ1–42 peptides, Aβx–38/Aβx–40/Aβx–42, and sAPPα/sAPPβ concentrations in pg/mL were determined, respectively, using amyloid-beta 40 and 42 Human ELISA Kits (Invitrogen), the V-PLEX Plus Aβ Peptide Panel 1 (4G8) Kit (Meso Scale Diagnostics, MSD R©, Rockville, MD, USA), and the sAPPα/sAPPβ Multiplex Kit (Meso Scale Diagnostics, MSD R©, Rockville, MD, USA) according to the manufacturer’s instructions.

[4] = system: sAPPα; assay: sAPPα secretion (MSD sAPPα/sAPPβ Multiplex Kit); type: cell-based, human; conditions: concentration increasing sAPPα 1.5-fold vs untreated control
Experimental: as §2
as §1, with “The cell lysate was further sonicated (30 pulses of 0.5 s, 60 Hz) for 5 min.” left out, “Samples were stored at −80 °C until analysis.” left out
as §3

[5] = system: SY5Y-APP^695WT cells; assay: in vitro; type: cell-based, human
Procedure, shortened: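 Cells seeded at 3 × 10^4 per well, attached 24 h, then exposed to drug for 72 h in DMEM with 10% SVF. Viability by MTS colorimetric assay, absorbance at 490 nm.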

`Cc1cn(-c2cccc(CN(C)C)c2)nc1-c1cccc(CN(C)CCCN(C)C)c1` [Compound 70, N′-[[3-[1-[3-(Dimethylaminomethyl)phenyl]-4-methyl-pyrazol-3-yl]phenyl] Methyl]-N,N,N′-trimethyl-propane-1,3-diamine] was tested, and the fold induction at 3 µM [1] was 6 and the p62/LC3 [2] was 0.30.

For `Cc1cn(-c2cccc(CN(C)C)c2)nc1-c1ccc(CN(C)CCCN(C)C)cc1` [Compound 67, {[4-(1-{3-[(Dimethylamino)methyl]phenyl}-4-methyl-1H-pyrazol-3-yl)phenyl]methyl} [3-(Dimethylamino)propyl]methylamine], the fold induction at 3 µM [1] was 5.2, the IC50 ([3]; Homo sapiens) was 3.2 ± 1.4 µM and the p62/LC3 [2] was 0.51.

For `Cc1cn(-c2cccc(CO)c2)nc1-c1ccc(CN(C)CCCN(C)C)cc1` [Compound 57, (3-{3-[4-({[3-(Dimethylamino)propyl](methyl)amino}methyl)phenyl]-4-methyl-1H-pyrazol-1-yl}phenyl)methanol], the fold induction at 3 µM [1] was 2 and the p62/LC3 [2] was 0.71.

`Cc1cn(-c2cccc(CN3CCN(C)CC3)c2)nc1-c1cccc(CN(C)CCCN(C)C)c1` [Compound 71, N,N,N′-Trimethyl-N′-[[3-[4-methyl-1-[3-[(4-methylpiperazin-1-yl)methyl]phenyl]pyrazol-3-yl]phenyl]methyl]propane-1,3-diamine] gave a fold induction at 3 µM [1] of 6.5, an IC50 ([3]; Homo sapiens) of 4 ± 0.4 µM and a p62/LC3 [2] of 0.34.

With “N′-[[4-[4-[3-(Dimethylamino)propyl]-3-[4-[3-(dimethylamino)propyl]phenyl] Pyrazol-1-yl]phenyl]methyl]-N,N,N′-trimethyl-propane-1,3-diamine [Compound 33]” the IC50 [3] was 6.8 ± 0.3 µM, the p62/LC3 [2] was 0.98 and the “sAPPα C1.5” value [4] was greater than 10 µM. For the same compound, the CC50 [5] was greater than 100 µM and the “Cytotox. CC50” value [5] was 100 µM.

In the case of `Cc1cn(-c2cccc(CN3CCN(C)CC3)c2)nc1-c1cccc(CN(C)C)c1` [Compound 65, N,N-dimethyl-1-[3-[4-methyl-1-[3-[(4-methylpiperazin-1-yl)methyl]phenyl]pyrazol-3-yl]phenyl]methanamine], the fold induction at 3 µM [1] is reported as 2.63 and the p62/LC3 [2] is reported as 0.63.

Work on `CN(C)CCCc1ccc(-c2nn(-c3ccc(CN(C)C)cc3)cc2CN(C)C)cc1` [Compound 24, 3-[4-[4-(Dimethylaminomethyl)-1-[4-(dimethylaminomethyl)phenyl] Pyrazol-3-yl]phenyl]-N,N-dimethyl-propan-1-amine] yielded a fold induction at 3 µM [1] of 3.3 and a p62/LC3 [2] of 0.49.
